From the CATMoS acute toxicity set (Mansouri et al. 2021)

Test: GHS categories as the set defines them, by LD50: 1 up to 5, 2 up to 50, 3 up to 300, 4 up to 2000, 5 above 2000 mg/kg
Details: rat; in vivo; po

| SMILES | GHS category |
| --- | --- |
| CCCCCCCCCCCOC(=O)c1ccccc1C(=O)OCCCCCCCCCCC | 5 |
| CC(=O)C(O)O | 5 |
| CC(SCC(=O)O)c1ccc2c(c1)Cc1ccccc1-2 (stereo unspecified) | 4 |
| CCCCCCC(=O)OCC | 5 |
| c1ccc(CSCc2ccccc2)cc1 | 5 |
| CC(C)OC(=O)C=Cc1ccccc1 | 5 |
| c1ccc2sc(SSc3nc4ccccc4s3)nc2c1 | 5 |
| CC1(C)S[C@@H]2[C@H](/N=C/N3CCCCCC3)C(=O)N2[C@H]1C(=O)O | 5 |
| CN1C(C(=O)Nc2ccccn2)=C(Nc2ccccn2)c2sc(Cl)cc2S1(=O)=O | 2 |
| O=C(O)[C@@H]1C[C@@H](C2CCCCC2)CN1 | 5 |
| CC1=NN(c2cccc(S(=O)(=O)O)c2)C(=O)C1/N=N/c1cc(Cl)c(C)cc1S(=O)(=O)O (stereo unspecified) | 5 |
| CCCCC(CC)COC(=O)C1CCC(C(=O)OCC(CC)CCCC)CC1 (stereo unspecified) | 5 |
| O=C(C=Cc1ccccc1)NCCO | 5 |
| O=C(OCCOCCO)c1ccccc1Nc1ccc(O)c(C(F)(F)F)c1 | 4 |
| Clc1ccccc1-c1nnc(-c2ccccc2Cl)nn1 | 5 |
| CC(C)(C)c1cc(CCC(=O)NCCCCCCNC(=O)CCc2cc(C(C)(C)C)c(O)c(C(C)(C)C)c2)cc(C(C)(C)C)c1O | 5 |
| O=[N+]([O-])c1cc(C(F)(F)F)c(Cl)c([N+](=O)[O-])c1Nc1ncc(C(F)(F)F)cc1Cl | 5 |
| CCOC(=O)c1c[nH]c2c(F)c(F)c(F)cc2c1=O | 5 |
| CCNc1nc(Cl)nc(NCC(=O)O)n1 | 5 |
| CCCCCCCC(=O)OCCC | 5 |
| O=c1cc(-c2ccccc2)c2ccc(OCCCN3CCC(c4ccccc4)CC3)cc2[nH]1 | 4 |
| Clc1ccc(N/C(=N/C2CCCCC2)c2ccccc2)cc1Cl | 5 |
| CC(CC(C)(C)C)CC(C)(C)C | 5 |
| Cc1cccn2c(=O)c(C(=O)NC3CCCC3)cnc12 | 3 |

| SMILES | GHS category |
| --- | --- |
| CC1(C)COC(Cn2cncn2)(c2cc3cc(Cl)cc(Cl)c3o2)OC1 | 4 |
| CC(=O)C(C)O (stereo unspecified) | 5 |
| CCCc1c(Cc2ccc(-c3ccccc3-c3nn[nH]n3)cc2)c(N)nc2ncnn12 | 4 |
| CCOC(C)C(C=NNC(N)=S)=NNC(N)=S (stereo unspecified) | 5 |
| Cc1ccc(C(=O)NS(=O)(=O)c2ccc(N)cc2)cc1C | 5 |
| FC(Cl)C(F)(F)C(F)(F)Cl (stereo unspecified) | 5 |
| CC(C)c1cc(C(C)C)c([N+](=O)[O-])c(C(C)C)c1[N+](=O)[O-] | 5 |
| CC(C)CCCCCCCCCCCCCCCO | 5 |
| CC(=O)CCC=C(C)CC/C=C(\C)CC/C=C(\C)CCC=C(C)C | 5 |
| O=C(Nc1cc(Cl)c(Cl)cc1Cl)c1cc(Cl)cc(-c2ccccc2)c1O | 5 |
| Nc1nc(COc2ccc(Cl)cc2)nc(NCCc2ccccc2)n1 | 5 |
| CC/C=C\CCOC=O | 5 |
| CN(C(=O)CC(=O)N(C)c1c(I)c(C(=O)NC(CO)C(O)CO)c(I)c(C(=O)NC(CO)C(O)CO)c1I)c1c(I)c(C(=O)NC(CO)C(O)CO)c(I)c(C(=O)NC(CO)C(O)CO)c1I (stereo unspecified) | 5 |
| O=C=Nc1cc(Cl)cc(Cl)c1 | 5 |
| CCCCC(CC)COC(=O)CC(CC(=O)OCC(CC)CCCC)(OC(C)=O)C(=O)OCC(CC)CCCC (stereo unspecified) | 5 |
| NC(N)=Nc1nc(CSCC/N=C/NS(=O)(=O)c2ccc(Br)cc2)cs1 | 5 |
| Nc1ccc(NCCO)c([N+](=O)[O-])c1 | 4 |
| COc1ccccc1C1NC(=O)C(C)S1 (stereo unspecified) | 5 |
| ClCCCCc1nnnn1C1CCCCC1 | 5 |
| O=C(Nc1ccccc1)N(Cc1ccc(Cl)cc1)C1CCCC1 | 5 |
| CCCc1c(Cc2ccc(-c3ccccc3-c3nn[nH]n3)cc2)c(=O)nc2nc(C)[nH]n12 | 4 |
| CCCCCCCCCCCC(=O)OCC(COC(=O)CCCCCC)OC(=O)CCCCCCC (stereo unspecified) | 5 |
| O=C(O)c1c(Cl)c(Cl)c(C(=O)O)c(Cl)c1Cl | 5 |
| Cc1ccc(S(=O)(=O)NC(=O)NC(=O)C(Cl)(Cl)Cl)cc1 | 5 |

| SMILES | GHS category |
| --- | --- |
| CCCCCCCCCC(C)=O | 5 |
| CC1(C)C[C@@H]1C(=O)N/C(=C\CCCCSC[C@H](N)C(=O)O)C(=O)O | 5 |
| O=C(O)c1cc(Nc2ccccc2)c(C(=O)O)cc1Nc1ccccc1 | 5 |
| COC(=O)Cc1c(C(=O)OC)sc(N)c1C#N | 5 |
| CCCCCCCCCCCC(=O)N(CCCC)CCCC | 5 |
| CC(C)OC[C@H]1CO[C@@](Cn2cncn2)(c2cc3cc(Cl)cc(Cl)c3o2)O1 | 4 |
| OC1CCC2CCCCC2C1 (stereo unspecified) | 5 |
| CCN1C(=CC=CC=Cc2sc3ccccc3[n+]2CC)Sc2ccccc21 | 3 |
| CC(C)CCCCCCCOP(=O)(Oc1ccccc1)Oc1ccccc1 | 5 |
| CC(CCC(=O)O)C1CCC2C3C(OS(=O)(=O)O)CC4CC(OS(=O)(=O)O)CCC4(C)C3CCC12C (stereo unspecified) | 5 |
| CO[C@@]1(NC(=O)CSC(F)F)C(=O)N2C(C(=O)O)=C(CSc3nnnn3CCO)CO[C@@H]21 | 5 |
| CN1CC(c2ccn[nH]2)CC2c3cccc4[nH]cc(c34)CC21 (stereo unspecified) | 4 |
| Cc1ccc(-n2nccn2)c(C(=O)O)c1 | 5 |
| CCCc1c(OCc2cccn3c(=O)c(-c4nn[nH]n4)cnc23)ccc(C(C)=O)c1O | 5 |
| OC[C@H]1O[C@@H](n2cnc3c(NC[C@H](O)COc4cccc5ccccc45)ncnc32)[C@H](O)[C@@H]1O | 4 |
| Cc1ccc(C(C)C)c(OC(=O)c2ccccc2Nc2cccc(C)c2C)c1 | 5 |
| NC(=O)Oc1ccc(Br)cc1C(=O)Oc1ccccc1 | 5 |
| Nc1nc(-c2ccc3ccccc3c2)cs1 | 5 |
| C=CCCCCCCCCC(=O)OCC | 5 |
| CC(C)C1C(=O)N(c2ccccc2)N(c2ccc(O)cc2)C1=O (stereo unspecified) | 4 |
| O=C(O)c1cc(N=Nc2ccc(N=Nc3ccc(S(=O)(=O)O)cc3)cc2)ccc1O | 5 |
| CCCCCCCOc1ccc(-c2ccc(C#N)cc2)cc1 | 5 |
| ClC(=Nc1c(Cl)c(Cl)c(Cl)c(Cl)c1Cl)C(Cl)(Cl)Cl | 4 |
| COC(=O)c1ccc2cc(C(=O)OC)ccc2c1 | 5 |

| SMILES | GHS category |
| --- | --- |
| CCN(Cc1cccc(S(=O)(=O)O)c1)c1ccc(C(=C2C=CC(=[N+](CC)Cc3cccc(S(=O)(=O)O)c3)C=C2)c2ccc(O)cc2S(=O)(=O)[O-])cc1 | 5 |
| N#CCCn1ccnc1 | 4 |
| CCOC(=O)CCCCC(=O)OCC | 4 |
| CON(C)C(=O)Nc1cc(C(C)(C)C)ns1 | 4 |
| CN1OCCC(=Cc2cc(C(C)(C)C)c(O)c(C(C)(C)C)c2)C1=O | 4 |
| Cc1ncc(COP(=O)(O)O)c(CN)c1O | 5 |
| CC(=O)O[C@@H]1C[C@H](C)CC[C@H]1C(C)C | 5 |
| COC(=O)[C@]1(C)CCC[C@@]2(C)[C@H]1CC=C1C=C(C(C)C)CC[C@@H]12 | 5 |
| CC(C)CCCCCCCCCCO | 5 |
| C1=CCC(c2ccccc2)CC1 (stereo unspecified) | 5 |
| CCCCn1cc2c3c(cccc31)[C@@]1(OC)C[C@@H](COC(=O)c3cncc(Br)c3)CN(C)[C@@H]1C2 | 4 |
| CO/C=C(/C(=O)OC)c1ccccc1COc1cccc(C(F)(F)F)n1 | 5 |
| CC(C)CCCCCCOC(=O)C1CCCCC1C(=O)OCCCCCCC(C)C (stereo unspecified) | 5 |
| CCC(Oc1ccc(F)c(C(F)(F)F)c1)C(O)=NCc1ccccc1 (stereo unspecified) | 5 |
| CN1CCN(C(=S)SSC(=S)N2CCN(C)CC2)CC1 | 5 |
| CC1=CCC(C=CC(C)C(C)O)C1(C)C (stereo unspecified) | 4 |
| CCCCCCCCCCCCCOC(=O)CCCCC(=O)OCCCCCCCCCCCCC | 5 |
| CCCCCCCCCCCCCCOc1ccc(C(=O)O)o1 | 5 |
| CC1Oc2cc(C(=O)c3ccc(Cl)cc3)ccc2NC1=O (stereo unspecified) | 5 |
| CCSCCO | 5 |
| CCCC(CCC)C(=O)Oc1cc(C)ccc1C(C)C | 5 |
| FC(F)(F)c1cccc(C(c2ccccc2)(c2ccccc2)n2cncn2)c1 | 5 |
| CS(C)(=O)=O | 5 |
| O=C(O)c1cc(O)ccc1Nc1cccc(C(F)(F)F)c1 | 4 |

| SMILES | GHS category |
| --- | --- |
| O=C(O)c1cc(O)c2c3nc4ccccc4oc-3cc(=O)c2n1 | 5 |
| CCOc1nc(NC)nc(NC(=O)NS(=O)(=O)c2ccccc2C(=O)OC)n1 | 5 |
| O=C1CC(N2C(=O)c3ccccc3C2=O)CC(=O)N1 | 5 |
| CC(CO)C1CCCCCCCCCCC1 (stereo unspecified) | 5 |
| CCCC1OC(Cn2cncn2)(c2cc3ccccc3o2)OCC1CC (stereo unspecified) | 4 |
| CCCCCC1Nc2cc(C(F)(F)F)c(S(N)(=O)=O)cc2S(=O)(=O)N1 (stereo unspecified) | 5 |
| CCCc1nc2ccnn2c(Cl)c1Cc1ccc(-c2ccccc2-c2nn[nH]n2)cc1 | 4 |
| CN1C(C(=O)Nc2ccccn2)=C(OP2(=O)OCCCO2)c2sc(Cl)cc2S1(=O)=O | 2 |
| COc1ccc(C(=O)c2cccc(C)c2)cc1C | 5 |
| O=C(O)CSCC(=O)NC1CCSC1=O (stereo unspecified) | 5 |
| O=C1NC(=O)C(c2ccc(O)cc2)N1 (stereo unspecified) | 5 |
| CCN(CC)c1nc2ccccn2c(=O)c1C=NN1CCOC1=O | 3 |
| C/C(=C\CO)CCC[C@H](C)CCC[C@H](C)CCCC(C)C | 5 |
| C[Si](C)(CCCN)N1CCC[Si]1(C)C | 4 |
| CO[C@H]1C[C@H](O[C@H]2[C@H](C)[C@@H](O[C@@H]3O[C@H](C)C[C@H](N(C)C)[C@H]3O)[C@H](C)C[C@@]3(CO3)C(=O)[C@H](C)[C@@H](O)[C@@H](C)[C@@H](C)OC(=O)[C@@H]2C)O[C@@H](C)[C@@H]1O | 5 |
| CCn1cc(C(=O)O)c(=O)c2cc(F)c(-n3cccc3)cc21 | 5 |
| CCCCC(CC)COCOCC(CC)CCCC (stereo unspecified) | 5 |
| Cc1cc(S(=O)(=O)O)c(/N=N/c2c(O)c(C(=O)O)cc3ccccc23)cc1Cl | 5 |
| C#CCN1C(=O)CCc2c(OCCCN3CCC(Cc4ccccc4)CC3)cccc21 | 4 |
| CO[C@]12CC[C@@]3(C[C@@H]1[C@](C)(O)C(C)(C)C)[C@H]1Cc4ccc(O)c5c4[C@@]3(CCN1CC1CC1)[C@H]2O5 | 4 |
